≈ marks a conversion by molar mass, not a printed value.
Key:
[1] = Cytotoxicity against human vincristine resistant KBVIN cells after 48 hrs by SRB assay
MCF7 = assay: Cytotoxicity against human MCF7 cells after 48 hrs by SRB assay; details: MCF7, 48 h
KB = assay: Cytotoxicity against human KB cells after 48 hrs by SRB assay
A549 = assay: Cytotoxicity against human A549 cells after 48 hrs by SRB assay; details: A549, 48 h

C=C(c1ccc(C)c(O)c1O)C(CC=C(C)C)OC(=O)/C(C)=C\C (stereo not drawn) [ALTAICALARIN B]
EC50 [1]: 15.9 µg/mL (≈ 48.1 µM)
EC50 (MCF7): 10.8 µg/mL (≈ 32.7 µM)
EC50 (KB): 11.8 µg/mL (≈ 35.7 µM)
EC50 (A549): > 20 µg/mL

C=C(C(CC1OC1(C)C)OC(=O)/C(C)=C\C)[C@@H]1[C@H](OC(=O)/C(C)=C\C)[C@@H]2O[C@]2(C)C(=O)[C@H]1OC(C)=O (stereo partly drawn) [ALTAICALARIN D]
EC50 [1]: 18.9 µg/mL (≈ 37.5 µM)
EC50 (MCF7): > 20 µg/mL
EC50 (KB): > 20 µg/mL
EC50 (A549): > 20 µg/mL

C=C(C(CC(O)C(C)(C)O)OC(=O)/C(C)=C\C)[C@H]1C[C@H]2O[C@@]2(C)C(OC(=O)/C(C)=C\C)[C@H]1OC(C)=O (stereo partly drawn)
EC50 [1]: > 20 µg/mL
EC50 (MCF7): > 20 µg/mL
EC50 (KB): > 20 µg/mL
EC50 (A549): > 20 µg/mL

C=C(c1cc(O)c(C)c(O)c1OC(C)=O)C(CC=C(C)C)OC(=O)/C(C)=C\C (stereo not drawn) [ALTAICALARIN A]
EC50 [1]: 0.9 µg/mL (≈ 2.32 µM)
EC50 (MCF7): 0.8 µg/mL (≈ 2.06 µM)
EC50 (KB): 1 µg/mL (≈ 2.57 µM)
EC50 (A549): 3.4 µg/mL (≈ 8.75 µM)

COc1cc([C@@H]2c3cc4c(cc3[C@@H](O[C@@H]3O[C@@H]5CO[C@@H](C)O[C@H]5[C@H](O)[C@H]3O)[C@H]3COC(=O)[C@H]23)OCO4)cc(OC)c1O [ETOPOSIDE]
EC50 [1]: 8.8 µg/mL (≈ 15 µM)
EC50 (MCF7): 16.4 µg/mL (≈ 27.9 µM)
EC50 (KB): 3.9 µg/mL (≈ 6.63 µM)
EC50 (A549): 0.4 µg/mL (≈ 0.68 µM)

C=C(C(CC1OC1(C)C)OC(=O)/C(C)=C\C)[C@H]1C[C@H]2O[C@@]2(C)C[C@H]1OC(=O)/C(C)=C\C (stereo partly drawn)
EC50 [1]: 11.4 µg/mL (≈ 26.4 µM)
EC50 (MCF7): > 20 µg/mL
EC50 (KB): > 20 µg/mL
EC50 (A549): > 20 µg/mL

C=C(C(CC=C(C)C)OC(=O)/C(C)=C\C)[C@@H]1C[C@@H]2O[C@]2(C)C(=O)[C@H]1OC(C)=O (stereo partly drawn) [ALTAICALARIN C]
EC50 [1]: 7.6 µg/mL (≈ 19.5 µM)
EC50 (MCF7): 7.7 µg/mL (≈ 19.7 µM)
EC50 (KB): 10.4 µg/mL (≈ 26.6 µM)
EC50 (A549): 11.4 µg/mL (≈ 29.2 µM)
